Measurements as given in ChEMBL document CHEMBL4808179 (Bioorg Med Chem Lett, 2021).
In brackets after ≈: the same amount, converted by molar mass.

Columns and labels:
Enterococcus faecium [1] = experiment: Potency index, ratio of Vancomycin MIC to test compound MIC for antibacterial activity against vancomycin resistant Enterococcus faecium Van A HS-06188 assessed as inhibition of bacterial growth; assay type: functional
Enterococcus faecium [2] = experiment: Antibacterial activity against vancomycin resistant Enterococcus faecium Van B V(R) assessed as inhibition of bacterial growth; assay type: functional
Staphylococcus aureus [3] = experiment: Antibacterial activity against methicillin-resistant Staphylococcus aureus USA300 assessed as bacterial growth inhibition; assay type: functional
Enterococcus faecium [4] = experiment: Potency index, ratio of Vancomycin MIC to test compound MIC for antibacterial activity against vancomycin resistant Enterococcus faecium Van M HS-08267 assessed as inhibition of bacterial growth; assay type: functional
Enterococcus faecium [5] = experiment: Antibacterial activity against vancomycin resistant Enterococcus faecium Van A HS-0649 assessed as inhibition of bacterial growth; assay type: functional
Enterococcus faecium [6] = experiment: Antibacterial activity against vancomycin resistant Enterococcus faecium Van M HS-0847 assessed as inhibition of bacterial growth; assay type: functional
Acinetobacter baumannii = experiment: Antibacterial activity against Acinetobacter baumannii assessed as bacterial growth inhibition; assay type: functional
Escherichia coli = experiment: Antibacterial activity against Escherichia coli AB1157 assessed as bacterial growth inhibition; assay type: functional
Enterococcus faecium [7] = experiment: Antibacterial activity against vancomycin resistant Enterococcus faecium Van M HS-08267 assessed as inhibition of bacterial growth; assay type: functional
Staphylococcus aureus [8] = experiment: Antibacterial activity against methicillin-resistant Staphylococcus aureus HS-663 assessed as bacterial growth inhibition; assay type: functional
Enterococcus faecium [9] = experiment: Antibacterial activity against vancomycin resistant Enterococcus faecium Van A HS-06188 assessed as inhibition of bacterial growth; assay type: functional
Staphylococcus aureus [10] = experiment: Antibacterial activity against methicillin-susceptible Staphylococcus aureus Newman assessed as bacterial growth inhibition; assay type: functional
Enterococcus faecium [11] = experiment: Potency index, ratio of Vancomycin MIC to test compound MIC for antibacterial activity against vancomycin resistant Enterococcus faecium Van B V(R) assessed as inhibition of bacterial growth; assay type: functional
Staphylococcus aureus [12] = experiment: Antibacterial activity against vancomycin-intermediate Staphylococcus aureus Mu50 assessed as bacterial growth inhibition; assay type: functional
Enterococcus faecium [13] = experiment: Potency index, ratio of Vancomycin MIC to test compound MIC for antibacterial activity against vancomycin resistant Enterococcus faecium Van M HS-0847 assessed as inhibition of bacterial growth; assay type: functional
L02 [14] = experiment: Cytotoxicity against human L02 cells assessed as reduction in cell viability >= 12.5 uM; assay type: cell-based
L02 [15] = experiment: Cytotoxicity against human L02 cells assessed as reduction in cell viability < 6.25 uM; assay type: cell-based
HEK-293T = experiment: Cytotoxicity against human HEK293T cells assessed as reduction in cell viability upto 25 uM; assay type: cell-based
Staphylococcus aureus [16] = experiment: Potency index, ratio of Vancomycin MIC to test compound MIC for antibacterial activity against methicillin-susceptible Staphylococcus aureus Newman assessed as bacterial growth inhibition; assay type: functional
Staphylococcus aureus [17] = experiment: Potency index, ratio of Vancomycin MIC to test compound MIC for antibacterial activity against vancomycin-intermediate Staphylococcus aureus Mu50 assessed as bacterial growth inhibition; assay type: functional

CN[C@H](CC(C)C)C(=O)N[C@H]1C(=O)N[C@@H](CC(N)=O)C(=O)N[C@H]2C(=O)N[C@H]3C(=O)N[C@H](C(=O)N[C@H](C(=O)N/N=C/c4ccc(-c5ccc(C(F)(F)F)cc5)cc4)c4cc(O)cc(O)c4-c4cc3ccc4O)[C@H](O)c3ccc(c(Cl)c3)Oc3cc2cc(c3O[C@@H]2O[C@H](CO)[C@@H](O)[C@H](O)[C@H]2O[C@H]2C[C@](C)(N)[C@H](O)[C@H](C)O2)Oc2ccc(cc2Cl)[C@H]1O
Ratio (Enterococcus faecium [1]): 8
MIC (Enterococcus faecium [2]): 1 µg/mL (≈ 0.59 µM)
MIC (Staphylococcus aureus [3]): 0.5 µg/mL (≈ 0.295 µM)
Ratio (Enterococcus faecium [4]): 8
MIC (Enterococcus faecium [5]): 4 µg/mL (≈ 2.36 µM)
MIC (Enterococcus faecium [6]): 4 µg/mL (≈ 2.36 µM)
MIC (Acinetobacter baumannii): > 128 µg/mL
MIC (Escherichia coli): > 128 µg/mL
MIC (Enterococcus faecium [7]): 2 µg/mL (≈ 1.18 µM)
MIC (Staphylococcus aureus [8]): 0.0625 µg/mL (≈ 0.0369 µM)
MIC (Enterococcus faecium [9]): 4 µg/mL (≈ 2.36 µM)
MIC (Staphylococcus aureus [10]): 1 µg/mL (≈ 0.59 µM)
Ratio (Enterococcus faecium [11]): 8
MIC (Staphylococcus aureus [12]): 2 µg/mL (≈ 1.18 µM)
Ratio (Enterococcus faecium [13]): 8

CN[C@H](CC(C)C)C(=O)N[C@H]1C(=O)N[C@@H](CC(N)=O)C(=O)N[C@H]2C(=O)N[C@H]3C(=O)N[C@H](C(=O)N[C@H](C(=O)N/N=C/c4ccccc4)c4cc(O)cc(O)c4-c4cc3ccc4O)[C@H](O)c3ccc(c(Cl)c3)Oc3cc2cc(c3O[C@@H]2O[C@H](CO)[C@@H](O)[C@H](O)[C@H]2O[C@H]2C[C@](C)(N)[C@H](O)[C@H](C)O2)Oc2ccc(cc2Cl)[C@H]1O
MIC (Enterococcus faecium [2]): 128 µg/mL (≈ 82.5 µM)
MIC (Staphylococcus aureus [3]): 2 µg/mL (≈ 1.29 µM)
MIC (Enterococcus faecium [5]): 128 µg/mL (≈ 82.5 µM)
MIC (Enterococcus faecium [6]): 64 µg/mL (≈ 41.3 µM)
MIC (Acinetobacter baumannii): > 128 µg/mL
MIC (Escherichia coli): > 128 µg/mL
MIC (Enterococcus faecium [7]): 64 µg/mL (≈ 41.3 µM)
MIC (Staphylococcus aureus [8]): 0.5 µg/mL (≈ 0.322 µM)
MIC (Enterococcus faecium [9]): 128 µg/mL (≈ 82.5 µM)
MIC (Staphylococcus aureus [10]): 2 µg/mL (≈ 1.29 µM)
Activity (L02 [14]): Toxic
MIC (Staphylococcus aureus [12]): 16 µg/mL (≈ 10.3 µM)

CN[C@H](CC(C)C)C(=O)N[C@H]1C(=O)N[C@@H](CC(N)=O)C(=O)N[C@H]2C(=O)N[C@H]3C(=O)N[C@H](C(=O)N[C@H](C(=O)NNCc4ccc(-c5ccc(Cl)cc5)cc4)c4cc(O)cc(O)c4-c4cc3ccc4O)[C@H](O)c3ccc(c(Cl)c3)Oc3cc2cc(c3O[C@@H]2O[C@H](CO)[C@@H](O)[C@H](O)[C@H]2O[C@H]2C[C@](C)(N)[C@H](O)[C@H](C)O2)Oc2ccc(cc2Cl)[C@H]1O
Ratio (Enterococcus faecium [1]): 8
MIC (Enterococcus faecium [2]): 4 µg/mL (≈ 2.4 µM)
MIC (Staphylococcus aureus [3]): 1 µg/mL (≈ 0.601 µM)
Ratio (Enterococcus faecium [4]): 8
MIC (Enterococcus faecium [5]): 16 µg/mL (≈ 9.62 µM)
MIC (Enterococcus faecium [6]): 8 µg/mL (≈ 4.81 µM)
MIC (Acinetobacter baumannii): 128 µg/mL (≈ 76.9 µM)
Activity (L02 [15]): Toxic
MIC (Escherichia coli): 128 µg/mL (≈ 76.9 µM)
MIC (Enterococcus faecium [7]): 4 µg/mL (≈ 2.4 µM)
MIC (Staphylococcus aureus [8]): 0.0625 µg/mL (≈ 0.0376 µM)
Activity (HEK-293T): Non-Toxic
MIC (Enterococcus faecium [9]): 8 µg/mL (≈ 4.81 µM)
Ratio (Staphylococcus aureus [16]): 32
Ratio (Staphylococcus aureus [17]): 2
MIC (Staphylococcus aureus [10]): ≤ 0.0625 µg/mL
Ratio (Enterococcus faecium [11]): 8
MIC (Staphylococcus aureus [12]): 4 µg/mL (≈ 2.4 µM)
Ratio (Enterococcus faecium [13]): 8

CN[C@H](CC(C)C)C(=O)N[C@H]1C(=O)N[C@@H](CC(N)=O)C(=O)N[C@H]2C(=O)N[C@H]3C(=O)N[C@H](C(=O)N[C@H](C(=O)N[C@@H](CS)C(=O)O)c4cc(O)cc(O)c4-c4cc3ccc4O)[C@H](O)c3ccc(c(Cl)c3)Oc3cc2cc(c3O[C@@H]2O[C@H](CO)[C@@H](O)[C@H](O)[C@H]2O[C@H]2C[C@](C)(N)[C@H](O)[C@H](C)O2)Oc2ccc(cc2Cl)[C@H]1O
Ratio (Enterococcus faecium [1]): 8
MIC (Enterococcus faecium [2]): 8 µg/mL (≈ 5.15 µM)
MIC (Staphylococcus aureus [3]): 32 µg/mL (≈ 20.6 µM)
Ratio (Enterococcus faecium [4]): 8
MIC (Enterococcus faecium [5]): > 128 µg/mL
MIC (Enterococcus faecium [6]): 8 µg/mL (≈ 5.15 µM)
MIC (Acinetobacter baumannii): > 128 µg/mL
MIC (Escherichia coli): > 128 µg/mL
MIC (Enterococcus faecium [7]): 8 µg/mL (≈ 5.15 µM)
MIC (Staphylococcus aureus [8]): 2 µg/mL (≈ 1.29 µM)
MIC (Enterococcus faecium [9]): 16 µg/mL (≈ 10.3 µM)
MIC (Staphylococcus aureus [10]): 64 µg/mL (≈ 41.2 µM)
Activity (L02 [14]): Toxic
Ratio (Enterococcus faecium [11]): 8
MIC (Staphylococcus aureus [12]): 128 µg/mL (≈ 82.5 µM)
Ratio (Enterococcus faecium [13]): 8

CN[C@H](CC(C)C)C(=O)N[C@H]1C(=O)N[C@@H](CC(N)=O)C(=O)N[C@H]2C(=O)N[C@H]3C(=O)N[C@H](C(=O)N[C@H](C(=O)N[C@@H](CCCNC(=N)N)C(N)=O)c4cc(O)cc(O)c4-c4cc3ccc4O)[C@H](O)c3ccc(c(Cl)c3)Oc3cc2cc(c3O[C@@H]2O[C@H](CO)[C@@H](O)[C@H](O)[C@H]2O[C@H]2C[C@](C)(N)[C@H](O)[C@H](C)O2)Oc2ccc(cc2Cl)[C@H]1O
MIC (Enterococcus faecium [2]): 64 µg/mL (≈ 39.9 µM)
MIC (Enterococcus faecium [5]): 64 µg/mL (≈ 39.9 µM)
MIC (Enterococcus faecium [6]): 64 µg/mL (≈ 39.9 µM)
MIC (Acinetobacter baumannii): > 128 µg/mL
MIC (Escherichia coli): 32 µg/mL (≈ 19.9 µM)
MIC (Enterococcus faecium [7]): 64 µg/mL (≈ 39.9 µM)
MIC (Staphylococcus aureus [8]): 0.25 µg/mL (≈ 0.156 µM)
MIC (Enterococcus faecium [9]): 64 µg/mL (≈ 39.9 µM)
MIC (Staphylococcus aureus [10]): 2 µg/mL (≈ 1.25 µM)
Activity (L02 [14]): Toxic
MIC (Staphylococcus aureus [12]): 2 µg/mL (≈ 1.25 µM)
